A value given as a limit tells only on which side of the number the result lay.

Take `O=C(N=C1SCCN1Cc1ccc(Cl)nc1)C(F)(F)F`: the melting point (usually the temperature, or range, at which the solid turns liquid) turned out to be 96 °C.

With `Cc1cc(CCC(=O)OCC(CO)(COC(=O)CCc2cc(C)c(O)c(C(C)(C)C)c2)COC(=O)CCc2cc(C)c(O)c(C(C)(C)C)c2)cc(C(C)(C)C)c1O`, the melting point lay within 40 to 50 °C.

Compound `CCOC(=O)NC(CCSC)C(N)=O` (racemic) showed a melting point of 110 to 112 °C.

Compound `OCC1OC(n2cnc3c(NCC(c4ccc(Cl)cc4)c4ccc(Cl)cc4)ncnc32)C(O)C1O` (stereo not given) returned a melting point of 95 to 120 °C.

Turning to `Cc1ccc(N2CCN(Cc3n[nH]c4ccccc34)CC2)nc1`, the melting point was 151 to 153 °C.

Turning to `O=C(O)CCC(=O)N1Cc2c(cc3ccc4c(c3c2-c2ccc3c(c2)OCO3)OCO4)C1=O`, the melting point was in the range of 231 to 233 °C.

In the case of `C#CCOc1cc(Oc2ccc(Cl)c(Cl)c2)ncn1`, the melting point came to 109 °C.

Turning to `O=C(NC12CC3CC(CC(C3)C1)C2)c1cc(O)c(O)c([N+](=O)[O-])c1`, the melting point was in the range of 207 to 208 °C.

`Cc1nc(Cc2ccc(O)cc2)c2c(c1OCCCCNC(C)C)COC2` returned a melting point of 59 to 61 °C.

`O=Cc1cc(Br)ccc1Oc1ccc(Cl)c(Cl)c1` came in with a melting point of 129 to 132 °C.

`OC1CSC(Oc2cnccc2-c2ccc(F)cc2)C(O)C1O` (stereo not given) gave a melting point of 219 °C.

In turn, `Cc1cc(Oc2ncc(C(F)(F)F)cc2Cl)nn1C(=O)NC1CC1` registered a melting point of 98 to 99 °C.

For `O=S(=O)(NC1CC1)c1ccc(Nc2nc(OCC3CCCCC3)c3nc[nH]c3n2)cc1`, the melting point is 220 to 221 °C.

`CCCC1Oc2cc(OC)c(Cl)c(Cl)c2C1=O` (stereo not given) showed a melting point of 90 to 92 °C.

For the compound `COc1ccc(-c2cc(CN)c(=O)n(Cc3ccc(Cl)cc3)n2)cc1F`, the melting point lay in the range of 128 to 131 °C.

Compound `CN=C(NC#N)C1=CC(CF)(CF)Oc2ccc(C(F)(F)C(F)(F)F)cc21` had a melting point of 178 to 179 °C.

On to `CC(=O)Nc1c(C(O)(C(F)(F)F)C(F)(F)F)ccc2ccccc12`, for which the melting point fell in the range of 155 to 156 °C.

As for `COc1nc(N)nc(C(C)C)n1`, the melting point lay in the range of 116 to 118 °C.

Turning to `CS(=O)(=O)N1CCS(=O)c2ccccc2C1` (stereo not given), the melting point was 195 to 197 °C.

For `CN(Cc1ccccc1)Cc1c(-c2ccc(NC(=O)C(C)(C)O)cc2)sc2c1c(=O)c(C(=O)c1ccccc1)cn2Cc1c(F)cccc1F`, the melting point was in the range of 222 to 223 °C.

For the compound `Cc1cc(Cn2nnc(C(N)=O)c2N)ccc1C(=O)c1ccccc1`, the melting point was 181 to 182 °C.

Regarding `O=C(O)Cc1cccc2c(-c3ccccc3)nccc12`, the melting point came out at 192 °C.

In the case of `Oc1cccc2c1CCC(n1cc[nH]c1=S)C2` (stereo not given), the melting point is 263 to 265 °C.

Compound `CCOC(=O)c1cc(CC)sc1Nc1cc(C)ccc1[N+](=O)[O-]` had a melting point of 55 to 57 °C.

As for `CC(C)(C)OC(=O)Nc1ccc2ccc(S(=O)(=O)N(Cc3ccccc3)Cc3ccccc3)cc2c1Br`, the melting point was in the range of 150 to 151 °C.

Compound `CNc1ncccc1[N+](=O)[O-]` came in with a melting point of 52 to 53 °C.

In the case of `CN(C)C=CC=C(C#N)c1cccnc1`, the melting point was in the range of 117 to 120 °C.

For `CCOC(=O)C1C(c2ccco2)C(C(=O)OCC)C(O)(C(F)(F)F)NC1(O)C(F)(F)F` (stereo not given), the melting point was 129 to 131 °C.

With `O=C(Cc1cc(C(F)(F)F)ns1)c1ccc(Cl)cc1`, the melting point is 109 to 110 °C.

As for `CCc1oc2cccc(O)c2c1C`, the melting point lay within 105 to 107 °C.

With `CC(CC(C)C1CCC2C3C(O)CC4CC(O)CCC4(C)C3CCC12C)C(=O)O` (stereo not given), the melting point lay within 125 to 127 °C.

Take `CCc1cc(OCc2ccccc2)cc(C(=O)OC)c1C(=O)OC`: the melting point was in the range of 66 to 67 °C.

`CCOC(=O)Cc1c(C)n(Cc2ccc3ccccc3c2)c2ccc(OCc3csc(-c4ccccc4)n3)cc12` returned a melting point of 118 to 119 °C.

As for `CC(=O)c1ccc([N+](=O)[O-])c(Nc2cccc(-c3cccnc3)c2)c1`, the melting point is 112 to 113 °C.

In turn, `Cc1cc2c(o1)c(-c1ccc(COC(=O)CCC(=O)O)o1)nn2Cc1ccccc1` displayed a melting point of 126 to 129 °C.

In turn, `CCCCCCCCCN(CCCCC)CCC(=O)O` gave a melting point of 168 to 176 °C.

Compound `Cc1ccccc1CN1CCc2ccc(C(=O)CCC(=O)N3CCC(c4ccc(Cl)cc4)CC3)cc2CC1` displayed a melting point of 108 to 109 °C.

Compound `CCCCCCCCC=CCCCCCCCC(=O)CCCNC(=O)CCNC(C)=O` came in with a melting point of 123 to 125 °C.

For `COc1cc(Cl)cc(OC(=O)c2cc3cc(CCl)ccc3oc2=O)c1`, the melting point fell in the range of 184 to 185 °C.

In the case of `Brc1ccc(-c2nnnn2Cc2ccccc2)s1`, the melting point fell in the range of 196 to 197 °C.

Regarding `Cc1cc(-c2cnn3c(C(F)(F)F)cc(-c4ccc(Cl)c(Cl)c4)nc23)cc(C)n1`, the melting point turned out to be 281 °C.

For the compound `Cn1cnc(=O)c(-c2cccc(C(F)(F)F)c2)c1`, the melting point fell in the range of 155 to 156 °C.

Regarding `COC(=O)C(C)OC(=O)c1cc(-n2c(=O)cc(C(F)(F)F)n(C)c2=O)c(F)cc1Cl` (stereo not given), the melting point was in the range of 102 to 104 °C.

Compound `Cc1ccc(C(=O)N2CC3CC2CN3c2nc(-c3ccncc3)cc(=O)n2C)cc1` (stereo not given) gave a melting point of 118 to 120 °C.

Turning to `O=C(O)C(=O)NC1N=C2C(=Cc3ccccc32)S1` (stereo not given), the melting point fell in the range of 229 to 231 °C.

With `CCCc1nc2c(N)nc3cc(-c4ccc(NC(C)=O)cc4)ccc3c2s1`, the melting point was 252 to 255 °C.

In the case of `Cn1cnc2nc(-c3ccc(Br)cc3)nn2c1=S`, the melting point was over 300 °C.

`Cc1nccn1C(=O)c1ccccc1` came in with a melting point of 143 to 144 °C.

In turn, `Cc1oc(Cc2cccc(Br)c2)c(C(=O)c2cc(C(C)C)c(OS(=O)(=O)c3ccc(C(=O)O)c(O)c3)c(C(C)C)c2)c1C` gave a melting point of 148 °C.

Take `CCN(CC)c1c([N+](=O)[O-])cc(C(F)(F)F)c(N2CCCC2=O)c1[N+](=O)[O-]`: the melting point lay within 94 to 95 °C.

On to `Cc1cc(-c2c(-c3ccc(S(N)(=O)=O)cc3)cnn(-c3cccc(Cl)c3)c2=O)ccc1F`, for which the melting point is 187 to 188 °C.

Compound `Cc1nc2c(N)nc3cc(-c4ccccc4)ccc3c2n1CCCS(C)(=O)=O` had a melting point of 203 to 205 °C.

In turn, `C=CCC1(C(=O)N2CCCCC2)c2ccccc2-c2ccccc21` displayed a melting point of 64 to 66 °C.

With `O=C(Nc1nc(-c2ccco2)c(C(=O)C2CCOCC2)s1)c1ccccc1OC(F)(F)F`, the melting point was 131 to 134 °C.

For the compound `CCSc1ccc(-c2ccccn2)c2c1C(=O)CC(C)C2` (stereo not given), the melting point was in the range of 120 to 122 °C.

`C=CCOc1ncc(F)c(N(N)C(=O)c2cccc(C)c2)n1`: the melting point fell in the range of 181 to 185 °C.

As to `CCCCc1cn(-c2ccccc2C(C)C)c(=O)n1Cc1ccc(-c2ccccc2-c2nnn[nH]2)cc1`, the melting point was 167 to 168 °C.

`CCOc1cc2c(cc1OCC)-c1c(C#N)sc(=O)n1CC2`: the melting point lay in the range of 172 to 174 °C.

For the compound `O=C(NC1CCCCC1)N[C@H]1C[C@H](C(=O)O)Nc2cc(Cl)cc(Cl)c21` (relative stereo), the melting point fell in the range of 217 to 219 °C.

As to `CC(C)COC(=O)N1CCN(C2=C(Cl)C(=O)c3ccccc3C2=O)CC1`, the melting point lay within 92 to 94 °C.

With `Oc1nn(-c2ccccn2)c(-c2ccccc2)c1Cc1ccccc1`, the melting point lay in the range of 115 to 116 °C.

In turn, `O=C(O)c1ccc(OC2=C3N=C4CCCCC4=C3C(CCCCc3ccccc3)C=C2)o1` (stereo not given) returned a melting point of 120 to 121 °C.

`CCCc1nc2c(N)nc3cc(OCc4ccccc4Cl)ccc3c2n1CC(C)C`: the melting point was in the range of 216 to 218 °C.

Take `COc1ccc2c(C(=O)NCCCCC(=O)O)cc3cc4c(cc3c2c1)OCO4`: the melting point was in the range of 137 to 138 °C.

As to `CN(C)Cc1ccc2c(NCc3ccc(NC(=O)c4ccc(F)cc4)cc3)nc(N(C)C)nc2c1`, the melting point was 94 °C.

As to `Cc1c(C(=O)OC(C)C)ncc2[nH]c3cccc(Oc4ccc(Cl)cn4)c3c12`, the melting point is 243 to 245 °C.

Take `Cn1c(SCCO)nnc1SCCO`: the melting point is 87 to 88 °C.

With `N#Cc1ccc(CC2CCN(Cc3ccccc3)CC2)cc1`, the melting point lay within 95 to 96 °C.

`CC(C)(C)c1cc(OCC(=O)OCCN2C(C)(C)CC(OC(=O)COc3ccc(O)c(C(C)(C)C)c3)CC2(C)C)ccc1O`: the melting point was in the range of 74 to 77 °C.

As to `OCC1OC(n2cnc3c(Cl)cc(Cl)nc32)C(O)C1O` (stereo not given), the melting point is 148 to 150 °C.

Regarding `Cc1ccc(Cl)cc1NC(=S)Nc1nccs1`, the melting point is 197 to 198 °C.

In turn, `OCC1(c2ccccc2)CCN(Cc2ccccc2)CC1` gave a melting point of 127 °C.

`CS(=O)(=O)c1ccc(Oc2cc(OC3CCOCC3)c3[nH]c(C4=NCC(CCO)S4)cc3c2)nc1` (stereo not given): the melting point was in the range of 165 to 166 °C.

`COC(=O)CC(S)C(CC(C)C)C(=O)NC(Cc1ccccc1)C(N)=O` (stereo not given) yielded a melting point of 64 to 66 °C.

Compound `COCc1cccc(C(O)c2nc(OC)cc(OC)n2)c1N` (stereo not given) yielded a melting point of 40 to 42 °C.

With `CN1CCN(Cc2cnc(Nc3cc(-c4cccc(-n5ncc6cc(C(C)(C)C)cc(F)c6c5=O)c4CO)nn(C)c3=O)cn2)CC1`, the melting point lay within 215 to 218 °C.

Take `FC(F)(F)c1nnnn1-c1ccc(C2=NOC(c3cc(Cl)cc(Cl)c3)(C(F)(F)F)C2)cc1` (stereo not given): the melting point is 147 to 151 °C.

`COc1ccc(C(=O)Nc2cc(NC(=O)c3cccc(N(C)S(C)(=O)=O)c3)ccc2C)cc1OC` had a melting point of 168 to 169 °C.

In turn, `CCCCC(C#N)c1cccc(C(=O)c2cc3cc(C(=O)OC)sc3s2)c1` (stereo not given) had a melting point of 131 °C.

`CCC(CNC(=O)OC(C)(C)C)n1cnc2c(N)nc3ccccc3c21` (stereo not given) yielded a melting point of 171 to 173 °C.

The compound `CCOC(=O)c1cc(=O)c(Oc2ccc(O)cc2)co1` had a melting point of 206 to 208 °C.

`COc1ccc(C2=NN(c3ccc(NS(=O)(=O)c4ccc(C)cc4)cc3)C(=O)[C@H]3CC=CC[C@@H]23)cc1OC` (relative stereo) yielded a melting point of 229 to 230 °C.

Compound `CCCC(=O)c1cnc2c(C(N)=O)cccc2c1Nc1ccccc1C` had a melting point of 185 to 187 °C.

`CNC(=O)Nc1cc(CNc2ncccc2C(=O)OC)ccn1`: the melting point was 145 to 146 °C.

As to `O=C(Nc1cccc2ncccc12)C(Cl)(Cl)Cl`, the melting point was in the range of 145 to 147 °C.
